Measured values taken from ChEMBL document CHEMBL3421598, “Structure-activity relationships of the prototypical TRPM8 agonist icilin” (Bioorg Med Chem Lett, 2015).

Tests used:
Assay type in all cases: cell-based
[1] = target: Transient receptor potential cation channel subfamily V member 1 (Homo sapiens, UniProt Q8NER1); assay: Antagonist activity against human TRPV1 expressed in HEK293 cells assessed as inhibition of capsaicin-induced intracellular Ca2+ level pre-treated 5 mins before capsaicin stimulation by Fluo-4-AM dye based spectrofluorimetry
Sequence of Transient receptor potential cation channel subfamily V member 1 (Q8NER1 whole entry): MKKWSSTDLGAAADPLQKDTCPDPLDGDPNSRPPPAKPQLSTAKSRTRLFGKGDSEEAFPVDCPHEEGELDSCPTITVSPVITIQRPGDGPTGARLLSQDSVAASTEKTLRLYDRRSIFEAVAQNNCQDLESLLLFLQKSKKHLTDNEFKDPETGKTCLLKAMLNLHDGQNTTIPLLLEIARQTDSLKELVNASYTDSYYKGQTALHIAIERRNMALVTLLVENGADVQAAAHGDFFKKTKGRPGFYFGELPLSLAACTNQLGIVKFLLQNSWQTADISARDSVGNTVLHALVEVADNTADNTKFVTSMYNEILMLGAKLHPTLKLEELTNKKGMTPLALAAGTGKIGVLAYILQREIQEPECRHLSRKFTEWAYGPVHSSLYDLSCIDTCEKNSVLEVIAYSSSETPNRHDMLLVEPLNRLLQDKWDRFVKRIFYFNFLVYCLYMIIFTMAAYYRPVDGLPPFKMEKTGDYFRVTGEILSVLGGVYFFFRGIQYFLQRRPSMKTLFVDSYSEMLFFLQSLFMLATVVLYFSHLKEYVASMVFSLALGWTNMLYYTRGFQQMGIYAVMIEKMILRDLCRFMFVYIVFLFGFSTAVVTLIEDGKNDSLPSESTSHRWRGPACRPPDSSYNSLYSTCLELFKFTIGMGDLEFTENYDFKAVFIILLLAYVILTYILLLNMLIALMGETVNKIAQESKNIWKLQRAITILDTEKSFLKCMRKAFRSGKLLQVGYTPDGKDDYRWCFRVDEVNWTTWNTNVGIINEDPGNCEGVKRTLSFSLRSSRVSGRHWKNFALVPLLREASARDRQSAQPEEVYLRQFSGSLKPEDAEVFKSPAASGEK

[2] = target: T1, Transient receptor potential cation channel subfamily M member 8 (Rattus norvegicus, UniProt Q8R455); assay: Antagonist activity against rat TRPM8 expressed in HEK293 cells assessed as inhibition of icilin-induced intracellular Ca2+ level pre-treated 5 mins before icilin stimulation by Fluo-4-AM dye based spectrofluorimetry
T1 sequence (Q8R455 whole entry): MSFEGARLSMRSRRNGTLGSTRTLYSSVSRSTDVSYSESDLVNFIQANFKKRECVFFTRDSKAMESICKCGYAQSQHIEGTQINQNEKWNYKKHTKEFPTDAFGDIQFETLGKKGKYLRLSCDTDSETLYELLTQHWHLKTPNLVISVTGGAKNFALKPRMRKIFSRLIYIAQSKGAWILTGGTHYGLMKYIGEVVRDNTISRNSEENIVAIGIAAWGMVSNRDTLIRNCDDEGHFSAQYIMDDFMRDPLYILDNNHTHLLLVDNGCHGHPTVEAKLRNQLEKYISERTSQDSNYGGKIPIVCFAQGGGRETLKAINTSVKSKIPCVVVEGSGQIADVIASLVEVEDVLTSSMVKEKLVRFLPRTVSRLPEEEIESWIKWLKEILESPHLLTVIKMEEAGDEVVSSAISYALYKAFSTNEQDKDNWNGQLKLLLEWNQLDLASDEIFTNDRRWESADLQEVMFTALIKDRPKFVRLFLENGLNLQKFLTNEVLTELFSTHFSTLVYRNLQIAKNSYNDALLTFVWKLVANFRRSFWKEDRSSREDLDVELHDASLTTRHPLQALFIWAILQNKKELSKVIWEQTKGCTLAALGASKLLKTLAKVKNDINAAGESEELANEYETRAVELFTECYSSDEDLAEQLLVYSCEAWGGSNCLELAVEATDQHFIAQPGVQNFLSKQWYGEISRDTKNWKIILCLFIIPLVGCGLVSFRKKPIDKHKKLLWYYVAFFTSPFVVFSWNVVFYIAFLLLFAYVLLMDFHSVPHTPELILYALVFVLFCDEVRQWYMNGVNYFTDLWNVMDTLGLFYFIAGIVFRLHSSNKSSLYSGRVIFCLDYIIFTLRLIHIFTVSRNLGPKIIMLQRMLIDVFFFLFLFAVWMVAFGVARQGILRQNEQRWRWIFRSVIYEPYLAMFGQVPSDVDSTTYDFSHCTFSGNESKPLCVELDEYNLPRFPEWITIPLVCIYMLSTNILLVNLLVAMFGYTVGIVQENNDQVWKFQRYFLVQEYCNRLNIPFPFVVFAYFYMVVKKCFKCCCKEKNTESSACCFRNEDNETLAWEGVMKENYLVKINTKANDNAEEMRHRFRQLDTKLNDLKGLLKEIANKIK

[3] = target: Transient receptor potential cation channel subfamily M member 8 (Rattus norvegicus) (UniProt Q8R455); assay: Agonist activity at rat TRPM8 expressed in HEK293 cells assessed as induction of intracellular Ca2+ level by Fluo-4-AM dye based spectrofluorimetry relative to 4 uM ionomycin
Sequence of Transient receptor potential cation channel subfamily M member 8 (Rattus norvegicus) (Q8R455 whole entry, looked up): as the sequence (Q8R455 whole entry) above

[4] = target: T1, Transient receptor potential cation channel subfamily M member 8; assay: Agonist activity at rat TRPM8 expressed in HEK293 cells assessed as induction of intracellular Ca2+ level by Fluo-4-AM dye based spectrofluorimetry

SMILES | IC50 [1] [µM] | IC50 [2] [µM] | Efficacy [3] [%] | EC50 [4] [µM]
O=C(CCc1cccc([N+](=O)[O-])c1)Nc1cccc(I)c1 | 4.3 | 0.43 |  | 
Cc1ccc(O)c(N2CC=C(c3ccc([N+](=O)[O-])cc3)NC2=O)c1 |  | 16.9 | < 10 | 
O=C(/C=C/c1cccc([N+](=O)[O-])c1)Nc1ccccc1CO | > 10 | > 10 |  | 
CC(C)c1ccccc1NC(=O)/C=C/c1cccc([N+](=O)[O-])c1 | > 10 | 6.1 |  | 
CS(=O)(=O)Nc1cccc(-n2cc(-c3cccc([N+](=O)[O-])c3)[nH]c2=O)c1 |  | 26 | < 10 | 
O=C(/C=C/c1cccc([N+](=O)[O-])c1)Nc1cccc(Br)c1 | 2.5 | 0.14 |  | 
O=C(/C=C/c1cccc([N+](=O)[O-])c1)Nc1cccc(Cl)c1 | 7.1 | 0.17 |  | 
NC(=O)c1ccccc1N1CC=C(c2cccc([N+](=O)[O-])c2)NC1=O |  | 8.3 | 47.2 | 15.4
O=C1NC(c2cccc([N+](=O)[O-])c2)=CCN1c1cccc(O)c1 |  | 1.5 | 62 | 1.7
COc1cccc(N2CC=C(c3cccc([N+](=O)[O-])c3)N(C)C2=O)c1 |  | 68.4 | < 10 | 
O=C1NC(c2cccc([N+](=O)[O-])c2)=CCN1c1ccccc1I |  | 3.2 | 52.7 | 1.2
O=C1NC(c2cccc([N+](=O)[O-])c2)=CCN1c1ccccc1O [ICILLIN] |  | 0.058 | 75.1 | 
O=C1NC(c2cccc([N+](=O)[O-])c2)=CCN1c1ccc(O)cc1 |  | 11.3 | < 10 | 
COc1ccccc1N1CC2=C(NC1=O)c1ccccc1CC2 |  | 6.6 | < 10 | 
COc1ccccc1N1CC=C(c2cccc([N+](=O)[O-])c2)NC1=O |  | 8.3 | 18.5 | 1.1
COc1ccccc1NC(=O)/C=C/c1cccc([N+](=O)[O-])c1 | 10.7 | 1.8 |  | 
O=C1NC2=C(CCc3ccccc32)CN1c1ccccc1O |  | 5.7 | < 10 | 
CS(=O)(=O)Nc1cccc(N2CC=C(c3cccc([N+](=O)[O-])c3)NC2=O)c1 |  | 46.4 | < 10 | 
O=C(/C=C/c1cccc([N+](=O)[O-])c1)Nc1cccc(I)c1 | 1.2 | 0.073 |  | 
Cc1ccc(N2CC=C(c3cccc([N+](=O)[O-])c3)NC2=O)c(O)c1 |  | 1.4 | 46 | 1.2
CC(C)(C)c1cccc(NC(=O)/C=C/c2cccc([N+](=O)[O-])c2)c1 | > 10 | 0.6 |  | 
O=C1NC2=C(CCc3c2cccc3[N+](=O)[O-])CN1c1ccccc1O |  | 3.1 | < 10 | 
COc1ccccc1N1CC=C(c2ccc([N+](=O)[O-])cc2)NC1=O |  | 11.4 | < 10 | 
Cc1ccc(O)c(N2CC=C(c3cccc([N+](=O)[O-])c3)NC2=O)c1 |  | 0.26 | 69.4 | 0.14
O=C(/C=C/c1cccc([N+](=O)[O-])c1)Nc1ccccc1Cl | > 10 | 1.7 |  | 
Cc1ccccc1NC(=O)/C=C/c1cccc([N+](=O)[O-])c1 | > 10 | 2 |  | 
O=C1NC(c2cccc([N+](=O)[O-])c2)=CCN1c1ccccc1CO |  | 12 | 20.4 | 5

SMILES | IC50 [1] [µM] | IC50 [2] [µM] | Efficacy [3] [%] | EC50 [4] [µM]
O=c1[nH]c(-c2cccc([N+](=O)[O-])c2)cn1-c1ccccc1O |  | 3.5 | < 10 | 
O=C(/C=C/c1cccc([N+](=O)[O-])c1)Nc1cccc(CO)c1 | 6.1 | 6.5 |  | 
COc1cccc(N2CC=C(c3cccc([N+](=O)[O-])c3)NC2=O)c1 |  | 0.24 | 57.5 | 0.13
CS(=O)(=O)Nc1ccccc1NC(=O)/C=C/c1cccc([N+](=O)[O-])c1 | > 10 | > 10 |  | 
CCNC(=O)c1ccccc1N1CC=C(c2cccc([N+](=O)[O-])c2)NC1=O |  | 22 | < 10 | 
COc1cccc(NC(=O)/C=C/c2cccc([N+](=O)[O-])c2)c1 | 2.1 | 1.1 |  | 
O=C1NC2=C(CCc3ccc([N+](=O)[O-])cc32)CN1c1ccccc1O |  | 18.1 | < 10 | 
NC(=O)c1ccccc1N1CC=C(c2ccc([N+](=O)[O-])cc2)NC1=O |  | 11.4 | < 10 | 
COc1ccc(N2CC=C(c3cccc([N+](=O)[O-])c3)NC2=O)cc1 |  | 40 | < 10 | 
O=C(/C=C/c1cccc([N+](=O)[O-])c1)Nc1cccc(O)c1 | > 10 | > 10 |  | 
Cc1cccc(NC(=O)/C=C/c2cccc([N+](=O)[O-])c2)c1 | > 10 | 0.4 |  | 
O=C1NC(c2cccc([N+](=O)[O-])c2)=CCN1c1cccc(Br)c1 |  | 1.5 | 47 | 0.6
O=C1NC(c2ccc([N+](=O)[O-])cc2)=CCN1c1cccc(O)c1 |  | 10.9 | < 10 | 
O=C(/C=C/c1cccc([N+](=O)[O-])c1)Nc1ccccc1O | > 10 | 1.9 |  | 
O=C(/C=C/c1cccc([N+](=O)[O-])c1)Nc1ccccc1Br | > 10 | 1.5 |  | 
O=C(/C=C/c1cccc([N+](=O)[O-])c1)Nc1ccccc1I | > 10 | 1.05 |  | 
O=C1NC(c2cccc([N+](=O)[O-])c2)=CCN1c1cccc(Cl)c1 |  | 4.4 | 45.6 | 1.5
O=C1NC(c2cccc([N+](=O)[O-])c2)=CCN1c1ccccc1Br |  | 1.03 | 48.2 | 0.62
CC(C)c1cccc(NC(=O)/C=C/c2cccc([N+](=O)[O-])c2)c1 | 4.1 | 0.17 |  | 
O=C1NC(c2ccc([N+](=O)[O-])cc2)=CCN1c1ccccc1O |  | 5.7 | < 10 | 
O=C1NC(c2cccc([N+](=O)[O-])c2)=CCN1c1cccc(I)c1 |  | 0.47 | 30.9 | 0.3
COc1cccc(-n2cc(-c3cccc([N+](=O)[O-])c3)[nH]c2=O)c1 |  | 33.9 | < 10 | 
O=C1NC(c2ccc([N+](=O)[O-])cc2)=CCN1c1ccc(O)cc1 |  | 11.4 | < 10 | 
O=C1NC(c2cccc([N+](=O)[O-])c2)=CCN1c1ccccc1F |  | 8.7 | < 10 | 
O=C1NC(c2cccc([N+](=O)[O-])c2)=CCN1c1cccc(CO)c1 |  | 15.7 | < 10 | 
CC1=C(c2cccc([N+](=O)[O-])c2)NC(=O)N(c2ccccc2O)C1 |  | 14.3 | 10.8 | > 10
O=C1NC(c2cccc([N+](=O)[O-])c2)=CCN1c1ccccc1Cl |  | 0.95 | 41.8 | 0.89
